Among the test systems are PC-3; MDA-MB-435; ACHN; SK-MEL-5; UACC-257; IGROV-1; SK-OV-3; CAKI-1; SK-MEL-2; MCF7; NCI-H23; NCI-H226; NCI/ADR-RES; RPMI-8226; EKVX; K562; MDA-N; SR; T47D; A498.
Holding throughout (test): NCI-60 cell line screen, 48 h

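Grown in 96-well plates, cells were treated for 48 hours with each compound at five concentrations. Insufficient inhibition: endpoint recorded as highest concentration tested. Abbreviation: GI50, concentration required for 50% inhibition of growth.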 Calls of active or inactive are those of the source. No stated cut-off is given here; in the data, active = GI50 up to about 1.1 µM and inactive = higher. A value given as a limit tells only on which side of the number the result lay.

`COc1nc(C(Cl)(Cl)Cl)c(Cl)c(O)c1Cl`: the GI50 in the experiment on PC-3, with MDA-MB-435, with ACHN, with SK-MEL-5, in the experiment on UACC-257 and in the experiment on IGROV-1 was > 100 µM (inactive) throughout. Moreover, the GI50 is > 100 µM (inactive) in the experiment with SK-OV-3; 30.5 µM (inactive) in the experiment on CAKI-1; > 100 µM (inactive) in the experiment with SK-MEL-2; > 100 µM (inactive) with MCF7; > 100 µM (inactive) in the experiment on NCI-H23; > 100 µM (inactive) in the experiment on NCI-H226. Moreover, the GI50 in the experiment on NCI/ADR-RES, in the experiment with RPMI-8226, with EKVX, in the experiment on K562, in the experiment on MDA-N and in the experiment on SR was > 100 µM (inactive) each time. Besides, the GI50 in the experiment on T47D and in the experiment on A498 was > 100 µM (inactive) each time.

In the case of `S=C(Nc1ccccn1)Nc1ccccc1Cl`, the GI50 was > 84.5 µM (inactive) in the experiment on PC-3; 69.5 µM (inactive) in the experiment with MDA-MB-435; 32.2 µM (inactive) in the experiment on ACHN; 42.4 µM (inactive) in the experiment with SK-MEL-5; > 72.9 µM (inactive) in the experiment with UACC-257; > 36.1 µM (inactive) with IGROV-1. The GI50 in the experiment with SK-OV-3 was > 66.1 µM (inactive); with CAKI-1 it was > 52.4 µM (inactive); in the experiment with SK-MEL-2, > 100 µM (inactive); in the experiment with MCF7, 5.98 µM (inactive); in the experiment with NCI-H23, 49.9 µM (inactive); with NCI/ADR-RES, > 67.5 µM (inactive). The GI50 in the experiment with RPMI-8226 is > 100 µM (inactive); in the experiment with EKVX, 8.51 µM (inactive); in the experiment with K562, > 100 µM (inactive); in the experiment with MDA-N, > 100 µM (inactive); in the experiment with SR, 73.6 µM (inactive); in the experiment on T47D it was 67.8 µM (inactive). In addition, in the experiment on A498, the GI50 was > 84.3 µM (inactive).

Turning to `Cc1nc2cc(Cl)c(N)cc2[nH]1`, the GI50 with PC-3, in the experiment with MDA-MB-435, in the experiment on ACHN, in the experiment on SK-MEL-5, in the experiment on UACC-257 and with IGROV-1 was > 100 µM (inactive) in each case. In addition, the GI50 in the experiment with SK-OV-3, in the experiment on CAKI-1, with SK-MEL-2, with MCF7, with NCI-H23 and with NCI-H226 was > 100 µM (inactive) in each case. Besides, the GI50 in the experiment on NCI/ADR-RES, in the experiment on RPMI-8226, with EKVX, with K562, in the experiment on MDA-N and in the experiment with SR was > 100 µM (inactive) in each case. The GI50 with T47D and with A498 was > 100 µM (inactive) in each case.

For `C=C1COC(O)(C2OCOC(C3CC(=O)NC(=O)C3)C2O)C1C` (stereo not drawn), the GI50 is 0.0031 µM (active) with PC-3; 0.00333 µM (active) in the experiment on MDA-MB-435; 0.00533 µM (active) with ACHN; 0.00126 µM (active) in the experiment with SK-MEL-5; 0.00802 µM (active) with UACC-257; 0.00562 µM (active) in the experiment on IGROV-1. The GI50 with SK-OV-3 was 0.00384 µM (active); in the experiment on CAKI-1 it was 0.00468 µM (active); in the experiment on SK-MEL-2 it was 0.0016 µM (active); in the experiment on MCF7, 0.00268 µM (active); in the experiment with NCI-H23, 0.00381 µM (active); in the experiment with NCI-H226, 0.00619 µM (active). Besides, the GI50 was 0.017 µM (active) with NCI/ADR-RES; 0.00269 µM (active) in the experiment with RPMI-8226; 0.00689 µM (active) in the experiment with EKVX; 0.00316 µM (active) in the experiment with K562; 0.0034 µM (active) with MDA-N; 0.00213 µM (active) in the experiment on SR. For the same compound, the GI50 is 0.00146 µM (active) in the experiment on T47D and 0.0018 µM (active) in the experiment with A498.

`COc1cc2ccc(C(C)NCC#N)cc2cc1OC` (stereo not drawn): the GI50 in the experiment with PC-3, in the experiment with MDA-MB-435, in the experiment with ACHN, with SK-MEL-5, in the experiment with UACC-257 and in the experiment with IGROV-1 was > 100 µM (inactive) in each case. Besides, the GI50 in the experiment with SK-OV-3, with CAKI-1, in the experiment on SK-MEL-2, in the experiment with MCF7, in the experiment on NCI-H226 and with NCI/ADR-RES was > 100 µM (inactive) each time. The GI50 is > 100 µM (inactive) with RPMI-8226; > 100 µM (inactive) in the experiment with EKVX; > 100 µM (inactive) in the experiment with K562; > 100 µM (inactive) in the experiment with MDA-N; 28.1 µM (inactive) in the experiment with SR; > 100 µM (inactive) with T47D. Moreover, the GI50 in the experiment on A498 was > 100 µM (inactive).

Turning to `COc1ccc(OC)c(C[P+](c2ccccc2)(c2ccccc2)c2ccccc2)c1`, the GI50 was 1.57 µM (inactive) with PC-3; 0.984 µM (active) in the experiment on MDA-MB-435; 4.8 µM (inactive) in the experiment with ACHN; 0.991 µM (active) in the experiment with SK-MEL-5; 0.656 µM (active) in the experiment on UACC-257; 0.971 µM (active) in the experiment with IGROV-1. Moreover, the GI50 with SK-OV-3 was 2.58 µM (inactive); in the experiment with CAKI-1 it was 23.4 µM (inactive); with MCF7, 2.11 µM (inactive); in the experiment on NCI-H23 it was 2.1 µM (inactive); in the experiment with NCI-H226 it was 4.84 µM (inactive); in the experiment on NCI/ADR-RES it was > 100 µM (inactive). Also, the GI50 with RPMI-8226 was 0.33 µM (active); in the experiment with EKVX, 10.6 µM (inactive); in the experiment on K562, 0.445 µM (active); with MDA-N it was 0.753 µM (active); in the experiment on SR, 0.601 µM (active); in the experiment with T47D it was 2.87 µM (inactive). Besides, the GI50 in the experiment with A498 was 4.36 µM (inactive).

For the compound `COc1cc(O)c2c(=O)c(OC)c(-c3ccc4c(c3)OCO4)oc2c1`, the GI50 with PC-3 is > 100 µM (inactive); with MDA-MB-435, > 100 µM (inactive); in the experiment on ACHN it was 17.5 µM (inactive); in the experiment on SK-MEL-5, > 35.6 µM (inactive); in the experiment on UACC-257, > 100 µM (inactive); in the experiment on IGROV-1 it was > 52 µM (inactive). In addition, the GI50 in the experiment with SK-OV-3 is 13.9 µM (inactive); in the experiment on SK-MEL-2 it was 59.7 µM (inactive); with MCF7, > 100 µM (inactive); with NCI-H23 it was > 31.5 µM (inactive); in the experiment on NCI-H226, > 57.9 µM (inactive); in the experiment on NCI/ADR-RES, > 100 µM (inactive). Besides, the GI50 was > 100 µM (inactive) in the experiment with RPMI-8226; > 60.8 µM (inactive) in the experiment on EKVX; > 100 µM (inactive) in the experiment on MDA-N; > 100 µM (inactive) in the experiment on SR; > 100 µM (inactive) with T47D; 38.5 µM (inactive) in the experiment with A498.

For `CCOC(=O)c1cnc2[nH]ccn2c1=O`, the GI50 in the experiment with PC-3, in the experiment on MDA-MB-435, with ACHN, with SK-MEL-5, in the experiment on UACC-257 and in the experiment on IGROV-1 was > 10 µM (inactive) each time. Further, the GI50 in the experiment on SK-OV-3, with CAKI-1, in the experiment with SK-MEL-2, in the experiment on MCF7, with NCI-H23 and in the experiment on NCI-H226 was > 10 µM (inactive) in each case. The GI50 in the experiment with NCI/ADR-RES, in the experiment with RPMI-8226, in the experiment with EKVX, with K562, with MDA-N and in the experiment on SR was > 10 µM (inactive) in each case. Further, the GI50 in the experiment on T47D is > 10 µM (inactive); with A498, 5.48 µM (inactive).

For the compound `COc1ccc(C2=Nn3c(nc4sc5c(c4c3=O)CCCC5)SC2)cc1`, the GI50 in the experiment on PC-3, with MDA-MB-435, in the experiment on ACHN, in the experiment with SK-MEL-5, in the experiment with UACC-257 and in the experiment on IGROV-1 was > 100 µM (inactive) in each case. For the same compound, the GI50 in the experiment with SK-OV-3, in the experiment on CAKI-1, in the experiment with MCF7, in the experiment with NCI-H23, in the experiment with NCI-H226 and in the experiment on NCI/ADR-RES was > 100 µM (inactive) in each case. Also, the GI50 in the experiment with RPMI-8226, in the experiment on EKVX, with K562, in the experiment with MDA-N, with SR and in the experiment with T47D was > 100 µM (inactive) each time. For the same compound, the GI50 in the experiment on A498 is > 100 µM (inactive).

For the compound `COC(=O)c1ccccc1/C=C1/Cc2cccc(C)c2C1=O`, the GI50 in the experiment on PC-3 was > 100 µM (inactive); in the experiment on MDA-MB-435 it was > 100 µM (inactive); with ACHN, 57.5 µM (inactive); in the experiment with SK-MEL-5 it was 32.8 µM (inactive); with UACC-257, > 100 µM (inactive); in the experiment on IGROV-1, > 100 µM (inactive). Also, the GI50 in the experiment on SK-OV-3 is > 100 µM (inactive); in the experiment with CAKI-1 it was 69.3 µM (inactive); in the experiment on MCF7, > 100 µM (inactive); with NCI-H23, > 100 µM (inactive); in the experiment on NCI-H226, > 100 µM (inactive); in the experiment with NCI/ADR-RES, > 100 µM (inactive). Further, the GI50 is > 100 µM (inactive) in the experiment on RPMI-8226; > 100 µM (inactive) with EKVX; > 100 µM (inactive) with K562; > 100 µM (inactive) in the experiment with MDA-N; > 100 µM (inactive) with SR; 42.5 µM (inactive) in the experiment on T47D. For the same compound, the GI50 in the experiment on A498 is > 100 µM (inactive).
